Test: xn = mol fraction of the nth substance listed
Details: 101 kPa, Liquid; for viscosity: Concentric cylinders viscometry; for mass density: Vibrating tube method

OCCOCCOCCO [triethylene glycol] + O=S1(=O)CCCC1
Details	mass density, 303.15 K [kg/m3]	mass density, 313.15 K [kg/m3]	mass density, 323.15 K [kg/m3]	mass density, 333.15 K [kg/m3]	mass density, 343.15 K [kg/m3]	viscosity, 303.15 K [mPa·s]	viscosity, 313.15 K [mPa·s]	viscosity, 323.15 K [mPa·s]	viscosity, 333.15 K [mPa·s]	viscosity, 343.15 K [mPa·s]
x2 = 0	1116.5	1108.9	1101.1	1093.4	1085.5	29.5	19.3	13.3	9.58	7.16
x2 = 0.123	1130.3	1122.4	1114.6	1106.6	1098.5	25.6	16.9	11.8	8.6	6.49
x2 = 0.268	1147.6	1139.5	1131.5	1123.3	1115	21.2	14.3	10.1	7.49	5.74
x2 = 0.505	1178.8	1170.5	1161.9	1153.4	1145	15.6	10.9	8	6.09	4.78
x2 = 0.598	1192.2	1183.7	1175.1	1166.6	1158	13.9	9.9	7.36	5.67	4.49
x2 = 0.678	1204.5	1196	1187.5	1178.8	1170.1	12.6	9.13	6.88	5.36	4.29
x2 = 0.768	1219	1210.3	1201.5	1192.9	1184.3	11.4	8.4	6.43	5.09	4.12
x2 = 0.837	1231.3	1222.6	1213.9	1205.2	1196.4	10.8	8.11	6.29	5.01	4.1
x2 = 0.929	1248.8	1240	1231.2	1222.4	1213.7	10.3	7.89	6.22	5.02	4.13
